From patent US20250066423A1, “SESTRIN-MAPK COMPLEX INHIBITORS” (Sentcell Ltd, priority 2021, published 2025)
Peptide text beside a SMILES is read from it.

Columns and labels:
[1] = system: paediatric neuroblastoma cell line (sh-sy5y); assay: Cancer cell death by FACS live-dead staining; format: cell-based; details: 1 uM to 20 uM, 48 hours
Description: (§1) (Left) Immortalized paediatric neuroblastoma cell line (sh-sy5y) was treated at different concentrations of DOS46L and DOS144D (from 1 uM to 20 uM) for 48 hours, then analysed by FACS with live-dead staining. (Right) Breast cancer cell line (MCF-7) was treated at the fixed concentration of DOS46L and DOS144D (20 uM) for 48 hours, then analysed by FACS with live-dead dye staining. UN depicts untreated controls. Results of triplicate cultures are shown.

[2] = system: Breast cancer cell line (MCF-7); assay: Cancer cell death by FACS live-dead staining; format: cell-based; details: 20 uM, 48 hours
Description: as §1

[3] = system: CD95+ CD62L+ CD44− CD4+ memory T cells; format: in vivo, mice; details: examined up to 8 weeks
[4] = system: H1N1; assay: Autoptic lung analysis and viral clearance (qPCR of viral protein PA) in lungs of old mice; details: mouse, in vivo
[5] = system: sMAC signalling (sestrin 1, 2 and 3 expression, AMPK and MAPK phosphorylation); assay: Immunoblot of sMAC signalling in CD4+ T cells treated with DOS compounds (heat-map); format: cell-based, human
Description: CD4+ T cells were isolated from PBMCs from healthy donors, treated with DOS compounds for 4 hours and harvested for immunoblot analysis. The heat-map of Sestrin 1, Sestrin 2, Sestrin 3, p-mTOR1, p-JNK, p-AMPK, p-ERK1/2, and p-p38, represents the mean of three to nine experiments. Histone 3 was used as a control.
• 1. CD4+ cells were separated from PBMC using appropriate microbeads kit (Miltenyi) • 2. Cells were resuspended in whole RPMI medium and plated in the 24-multiwell plate • 3. Then activated for 4 hrs with DOS compounds • 4. Cells were then harvested, washed with PBS and resuspended in lysis buffer (RIPA with […]) • 5. The cell-lysis mix was incubated for 20 mins on ice • 6. Samples were centrifuged for 20 mins at the max speed • 7. The supernatant was collected and Lemmli buffer+β-Mercaptoethanol was added • 8. Samples were then boiled for 5 mins at 95° C. • 9. Samples were loaded on the polyacrylamide gel and left to run in TRIS-Glycine-SDS running buffer • 10. Once the run was completed the proteins were transferred from the gel to the nitrocellulose membrane by using the Trans-Blot machine (Biorad) • 11. Membrane was washed with 0.1% Tween-TBS buffer and blocked in 5% non-fat milk for 1 hr • 12. Followed incubation with the primary antibody o.n. • 13. The day after, the membrane was washed with 0.1% Tween-TBS buffer for three times for at least 30 mins each • 14. Secondary antibody was then added for 1h • 15. The membrane was the washed with 0.1% Tween-TBS buffer for three times for at least 30 mins each • 16. The signal was developed using ECL solution
This was shown by downregulation of sestrin 1, 2 and 3 expression, and AMPK and MAPK phosphorylation.

[6] = system: T cells; assay: Seahorse assay for cell metabolism (OCR, FAO); format: cell-based, human; details: T cells treated for 24h
Description: Senescent T cells and stem cells were analysed using FACS analysis. (B—C) Represented is the ratio to untreated sample. Each dot is an individual donor. (D) Oxygen Consumption Rate (OCR) of T cells treated with DOS46L for 24h were measured by Seahorse. […] (E) The FAO index was calculated by OCR difference between Ctrl and DOS46L treated T cells in the presence or in the absence of the FAO inhibitor etomoxir by Seahorse. Student's T-test was used to analyse the data. **p<0.01; ***p<0.001.
• 1. CD4+ cells were purified from PBMC using appropriate microbeads (Miltenyi) • 2. Purified CD4+ cells were activated with CD3/CD28 Dynabeads (Gibco) and treated over-night with DOS46L at 10 μM. • 3. Day after, the conventional growth media was removed from the cells and was added the “substrate-limited growth media” composed of basic DMEM plus 0.5 mM glucose, 1 mM glutamine and 1% FBS. • 4. Cells were then incubated with this media for 4 hrs in incubator. • 5. Cells were then counted and plated at the concentration of 2*10^5 cells/well in the XF96 well plate pre-treated with poly-lysine. • 6. Cells were then supplemented with the “assay media” composed of XF DMEM with 2 mM of glucose and 0.5 mM L-carnitine. • 7. […] Seahorse machine took reads of OCR values at different time points for the time span of 120 mins. […] Cells were left in incubator for 12 days and then they were analysed.

[7] = system: telomere extension in T cells exposed to APCs; assay: Telomere length quantification assay (qPCR); format: cell-based, human; details: 5 donors
Description: FIG. 23 illustrates live transfer of telomeres from APC to T cells in the presence of DOS. (A, left): T cells showing baseline fluorescence in the channel of Tel C; (A, middle): T cells treated with DOS cultured with APC; (A, right): T cells co-cultured with APC, in the absence of DOS. DOS enhances telomere transfer by ˜2 fold. Representative of 3 experiments. (B): Telomere extension was quantified by qPCR. Synapse-driven telomere extension (Akb) in T cells exposed to APCs and treated with or without DOS46L. Results from 5 donors are shown. […] Mann-Whitney was used. *p<0.05.
• 1. CD4− and CD4+ cells were purified from PBMC using appropriate microbead kit (Miltenyi) • 2. CD4+ cells were then used to purify CD27− and CD28− cells by using Miltenyi purification kits. • 3. A pellet of CD4− and CD4+/CD27−/CD28− cells were frozen. • 4. 4*10^6 CD4− were mixed with 1*10^6 CD4+/CD27−/CD28− cells in presence or not of DOS 46L 10 μM. • 14. The mixed cells were stimulated o.n. with a mix 1:1 of CMV and EBV • 15. The day after, CD4− cells were detached from conjugates with CD4+/CD27−/CD28− cells with a syringe by using cold PBS • 5. CD4− were then purified from CD4+ cells by using Miltenyi purification kits. • 16. CD4− and CD4+ cell pellets post conjugate were then frozen. • 17.

For CC[C@H](C)[C@@H]1NC(=O)[C@H](Cc2ccccc2)NC(=O)[C@H](C)NC(=O)[C@H](C(C)C)NC(=O)[C@@H]2CCCN2C1=O [DOS46L] (cyclo(AFIPV)), the cancer cell death [1] was “induction of cancer cell death”, the cancer cell death [2] was “induction of cancer cell death” and the “stem-like memory T cell generation” value [3] was “permanent stem-like generation”. The lung necrosis [4] was “protection from lung necrosis”, the “effectiveness at sMAC inactivation among all of the DOS compounds tested” value [5] was “most effective” and the sMAC pathway silenced [5] was 90%. For the same compound, the “sestrins inhibited (pan or selective inhibitor)” value ([5]; CD4+ T cells, 4 hours, FIG. 5 heat-map) was “inhibit all three sestrins”, the “oxidative metabolism and Fatty Acid Oxidation (FAO)” value [6] was “Induction of Fatty Acid Oxidation (FAO)” and the synapse-driven telomere extension [7] was “restoration in telomere length is similar to the extension observed in young T cells”.
